Assay results reported in patent publication US12466820B2, “Amino quinazoline derivatives as P2X3 inhibitors” (CHIESI FARMACEUTICI S.p.A., priority 2019, dated 2025).

Tests used:
[1] = target: T1, h P2X3 (Homo sapiens, UniProt P56373); test: In vitro electrophysiology assay for P2X3 (automated whole-cell patch clamp, Sophion Qube); assay type: cell-based; details: range of activity
T1 sequence (P56373 1-397): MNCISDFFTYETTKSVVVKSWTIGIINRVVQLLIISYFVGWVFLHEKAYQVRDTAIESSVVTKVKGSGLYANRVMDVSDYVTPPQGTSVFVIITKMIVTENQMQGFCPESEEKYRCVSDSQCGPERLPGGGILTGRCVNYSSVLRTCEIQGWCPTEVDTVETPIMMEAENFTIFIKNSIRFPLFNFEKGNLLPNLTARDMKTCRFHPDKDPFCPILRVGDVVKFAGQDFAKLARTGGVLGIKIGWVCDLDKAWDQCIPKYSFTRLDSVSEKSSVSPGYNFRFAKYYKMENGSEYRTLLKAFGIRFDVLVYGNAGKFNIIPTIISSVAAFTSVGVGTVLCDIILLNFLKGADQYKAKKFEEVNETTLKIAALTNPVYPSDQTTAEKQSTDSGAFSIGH
Method in brief: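 Whole-cell automated patch clamp at room temperature, cells held at −60 mV; after two 800 nM α,β-MeATP baseline responses, antagonist preincubated 10 min then co-applied with 800 nM α,β-MeATP. Inhibition of peak current vs second agonist response; IC50 from 10-concentration curves, one concentration per cell.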

[2] = target: T2, h P2X2/3 (Homo sapiens, UniProt P56373+Q9UBL9); test: In vitro electrophysiology assay for P2X2/3 (same protocol, 10 μM ATP as agonist); assay type: cell-based; details: Table 7, range of activity
T2 sequence (P56373 1-397): T1 sequence (P56373 1-397)
T2 sequence (Q9UBL9 1-471): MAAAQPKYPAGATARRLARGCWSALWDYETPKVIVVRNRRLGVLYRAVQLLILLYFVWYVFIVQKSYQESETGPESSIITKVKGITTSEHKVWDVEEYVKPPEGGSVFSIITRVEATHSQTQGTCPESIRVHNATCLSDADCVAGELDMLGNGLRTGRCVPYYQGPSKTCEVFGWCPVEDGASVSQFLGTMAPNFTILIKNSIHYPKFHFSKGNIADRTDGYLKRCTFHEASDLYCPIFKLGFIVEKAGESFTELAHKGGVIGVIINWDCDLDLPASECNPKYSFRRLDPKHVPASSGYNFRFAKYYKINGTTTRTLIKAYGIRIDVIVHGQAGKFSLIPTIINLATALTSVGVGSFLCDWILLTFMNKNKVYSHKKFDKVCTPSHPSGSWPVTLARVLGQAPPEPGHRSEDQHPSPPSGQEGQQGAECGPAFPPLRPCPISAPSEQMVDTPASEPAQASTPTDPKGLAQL
Experimental: Cells expressing P2X3 receptors were grown according to standard practice and maintained at 37° C. in a 5% humidified CO2 atmosphere. The cells were seeded into T175 flask 2 days prior to the day of the assay and dissociated from the flasks using TrypLE when grown to confluence of 80-90%. The dissociated cells were resuspended in serum free media at a cell density of 3×10^6 cells/ml and loaded onto the Sophion Qube automated patch-clamp system. The extracellular assay buffer contained 145 mM NaCl, 4 mM KCl, 2 mM CaCl2), 1 mM MgCl2, 10 mM HEPES, and 10 mM glucose at pH 7.4. The intracellular assay solution contained 140 mM CsF, 10 mM NaCl, 10 mM EGTA, 10 mM HEPES at pH 7.2. Agonist stock solutions were prepared in H2O and diluted in bath solution prior to use. All antagonists were prepared as 10 mM stock solutions in DMSO and diluted in bath solution prior to use. All experiments were performed under the whole-cell patch clamp configuration at room temperature with 384 individual cells being voltage clamped at −60 mV simultaneously on the Sophion Qube instrument. Two baseline responses were established with the application of α,β-MeATP (800 nM), with the subsequent agonist applications being washed out using extracellular assay buffer containing 0.5 U/ml apyrase. Following the second agonist application, antagonist was incubated in the absence of α,β-MeATP for 10 minutes. After antagonist preincubation, 800 nM α,β-MeATP and antagonist were co-administered to determine the inhibitory effect of the antagonist. One concentration of an antagonist was assessed against a single cell, with different concentrations of the antagonist applied to other cells on the 384 recording substrate. The control P2X3 current amplitude was taken from the peak current amplitude from the second agonist response prior to preincubation with antagonist. The peak P2X3 current amplitude in the presence of antagonist was used to calculate the inhibitory effect at each concentration of the antagonist according to the following equation: […]
Concentration-response curves were constructed from ten different concentrations with each concentration of antagonist tested on at least two individual cells. The concentration of the antagonist to inhibit P2X3 current by 50% (IC50) was determined by fitting the data with the following equation: […]
Where ‘a’ is minimum response, ‘b’ is maximum response, ‘c’ is IC50 and ‘d’ is Hill slope.
Representative compound of the present invention have been also tested for P2X2/3 receptor.
The same assay protocol was used for the P2X2/3 assay as the P2X3 assay with two modifications: 1) 10 μM ATP was used as the agonist; and 2) the mean current amplitude was measured seven seconds after the application of agonist.

[3] = Table 6, inhibition of P2X3 current, agonist α,β-MeATP (800 nM)

| SMILES | IC50 [1, 3] | IC50 ([1]; Table 7) | IC50 [2] |
| --- | --- | --- | --- |
| COc1cc(-c2ccc(F)cc2)cc2c(NC(C)c3cccc(=O)[nH]3)ncnc12 (single isomer, unassigned) [Example 190, 6-(1-((6-(4-Fluorophenyl)-8-methoxyquinazolin-4-yl)amino)ethyl)pyridin-2(1H)-one] | 316 to 3160 nM | 316 to 3160 nM | 3160 to 31600 nM |
| COc1cc(-c2ncc(F)cn2)cc2c(NC(C)c3nnc(C)s3)ncnc12 (centres unmarked) [Example 109, 6-(5-fluoropyrimidin-2-yl)-8-methoxy-N-(1-(5-methyl-1,3,4-thiadiazol-2-yl)ethyl)quinazolin-4-amine] | 316 to 3160 nM | 316 to 3160 nM | 3160 to 31600 nM |
| COc1cc(-c2ncc(C)cn2)cc2c(NC(C)c3nnc(C)o3)ncnc12 (single isomer, unassigned) [Example 129] | < 316 nM | < 316 nM | 3160 to 31600 nM |
| COc1cc(-c2ccc(F)cc2)cc2c(NC(C)c3cccc(=O)[nH]3)ncnc12 (single isomer, unassigned) [Example 191, 6-(1-((6-(4-Fluorophenyl)-8-methoxyquinazolin-4-yl)amino)ethyl)pyridin-2(1H)-one] | < 316 nM | < 316 nM | 316 to 3160 nM |
| COc1cc(-c2ncc(C)cn2)cc2c(NC(C)c3nc(C)no3)ncnc12 (single isomer, unassigned) [Example 123, 8-Methoxy-N-[1-(3-methyl-1,2,4-oxadiazol-5-yl)ethyl]-6-(5-methylpyrimidin-2-yl)quinazolin-4-amine] | < 316 nM | < 316 nM | 3160 to 31600 nM |
| COc1cc(-c2ncc(C)cn2)cc2c(NCc3cnc(C(F)(F)F)nc3)ncnc12 [Example 145, 8-methoxy-6-(5-methylpyrimidin-2-yl)-N-[[2-(trifluoromethyl)pyrimidin-5-yl]methyl]quinazolin-4-amine] | < 316 nM | < 316 nM | 316 to 3160 nM |
| COc1cc(-c2ccc(C)cn2)cc2c(NC(C)c3nc(C)no3)ncnc12 (single isomer, unassigned) [Example 163, 8-Methoxy-N-[1-(3-methyl-1,2,4-oxadiazol-5-yl)ethyl]-6-(5-methyl-2-pyridyl)quinazolin-4-amine] | < 316 nM | < 316 nM | 3160 to 31600 nM |
| COc1cc(-c2ccc(F)cn2)cc2c(NC(C)c3nc(C)no3)ncnc12 (centres unmarked) [Example 2, 6-(5-fluoropyridin-2-yl)-8-methoxy-N-(1-(3-methyl-1,2,4-oxadiazol-5-yl)ethyl)quinazolin-4-amine] | < 316 nM | < 316 nM | 3160 to 31600 nM |
| COc1cc(-c2ccc(C)cn2)cc2c(NCc3nnc(C)o3)ncnc12 [Example 143, 8-methoxy-N-[(5-methyl-1,3,4-oxadiazol-2-yl)methyl]-6-(5-methyl-2-pyridyl)quinazolin-4-amine] | < 316 nM | < 316 nM | 3160 to 31600 nM |
| C[C@@H](Nc1ncnc2c(-c3ccnnc3)cc(-c3ccc(F)cc3)cc12)c1cnc(C(F)(F)F)nc1 [Example 24, (R)-6-(4-fluorophenyl)-8-(pyridazin-4-yl)-N-(1-(2-(trifluoromethyl)pyrimidin-5-yl)ethyl)quinazolin-4-amine] | < 316 nM | < 316 nM | 3160 to 31600 nM |
| COc1cc(-c2ncc(C)s2)cc2c(NCc3ccc(Cl)cn3)ncnc12 [Example 117, N-((5-chloropyridin-2-yl)methyl)-8-methoxy-6-(5-methylthiazol-2-yl)quinazolin-4-amine] | < 316 nM | < 316 nM | 316 to 3160 nM |
| CNS(=O)(=O)c1cc(-c2ccc(F)cc2)cc2c(N[C@H](C)c3noc(C)n3)ncnc12 [Example 20, (R)-6-(4-fluorophenyl)-N-methyl-4-((1-(5-methyl-1,2,4-oxadiazol-3-yl)ethyl)amino)quinazoline-8-sulfonamide] |  |  | 316 to 3160 nM |
| COc1cc(-c2ncc(C)cn2)cc2c(N[C@H](C)c3noc(C)n3)ncnc12 [Example 7, 8-Methoxy-N-[(1R)-1-(5-methyl-1,2,4-oxadiazol-3-yl)ethyl]-6-(5-methylpyrimidin-2-yl)quinazolin-4-amine] | 316 to 3160 nM | 316 to 3160 nM | 3160 to 31600 nM |
| COc1cc(-c2ccc(C)cn2)cc2c(NCc3nc(C)no3)ncnc12 [Example 142, 8-methoxy-N-[(3-methyl-1,2,4-oxadiazol-5-yl)methyl]-6-(5-methyl-2-pyridyl)quinazolin-4-amine] | < 316 nM | < 316 nM | 3160 to 31600 nM |
| COc1cc(-c2ncc(C)cn2)cc2c(NCc3ccc(C(F)(F)F)nc3)ncnc12 [Example 155] | < 316 nM | < 316 nM | 316 to 3160 nM |
| COc1cc(-c2ncc(C)s2)cc2c(NCc3cc(C)no3)ncnc12 [Example 111, 8-methoxy-N-[(3-methylisoxazol-5-yl)methyl]-6-(5-methylthiazol-2-yl)quinazolin-4-amine] | < 316 nM | < 316 nM | 316 to 3160 nM |
| COc1cc(-c2ncc(C)cn2)cc2c(NCc3nc(C(F)(F)F)no3)ncnc12 [Example 144, 8-methoxy-6-(5-methylpyrimidin-2-yl)-N-[[3-(trifluoromethyl)-1,2,4-oxadiazol-5-yl]methyl]quinazolin-4-amine] | < 316 nM | < 316 nM | 3160 to 31600 nM |
| COc1cc(-c2ncc(C)s2)cc2c(NCc3nc(C(F)(F)F)no3)ncnc12 [Example 112, 8-methoxy-6-(5-methylthiazol-2-yl)-N-[[3-(trifluoromethyl)-1,2,4-oxadiazol-5-yl]methyl]quinazolin-4-amine] | < 316 nM | < 316 nM | 316 to 3160 nM |
| COc1cc(-c2ccc(C)cn2)cc2c(NCc3cc(C)no3)ncnc12 [Example 137, 8-methoxy-N-((3-methylisoxazol-5-yl)methyl)-6-(5-methylpyridin-2-yl)quinazolin-4-amine] | < 316 nM | < 316 nM | 3160 to 31600 nM |
| COc1cc(-c2ncc(C)cn2)cc2c(NC(C)c3ccc(C(F)(F)F)nn3)ncnc12 (single isomer, unassigned) [Example 121, 8-methoxy-6-(5-methylpyrimidin-2-yl)-N-[1-[6-(trifluoromethyl)pyridazin-3-yl]ethyl]quinazolin-4-amine] | 316 to 3160 nM | < 316 nM | 316 to 3160 nM |
| COc1cc(-c2ncc(C)s2)cc2c(NCc3ccc(C(F)(F)F)cn3)ncnc12 [Example 116, 8-methoxy-6-(5-methylthiazol-2-yl)-N-((5-(trifluoromethyl)pyridin-2-yl)methyl)quinazolin-4-amine] | < 316 nM | < 316 nM | 316 to 3160 nM |
| CNS(=O)(=O)c1cc(-c2ccc(F)cc2)cc2c(N[C@H](C)c3ccc(C)nn3)ncnc12 [Example 19, (R)-6-(4-fluorophenyl)-N-methyl-4-((1-(6-methylpyridazin-3-yl)ethyl)amino)quinazoline-8-sulfonamide] |  |  | 316 to 3160 nM |
